Experimental findings from patent publication US9371320B2, “Heterocyclic compound” (TAKEDA PHARMACEUTICAL COMPANY LIMITED, priority 2012, dated 2016) are described below.

Read-outs that look alike come from different tables or passages of the source.

One experiment concerns the target T1, JAK1 (Homo sapiens, UniProt P23458).
T1 construct: purchased Invitrogen
As to the kind of experiment: JAK1 enzyme inhibition test (LANCE method). In kind it is biochemical. The note with it: for Inhibitory rate (%) JAK1 1 μM / inhibition at 1 µM: test compound 1 μM; for inhibition at 1 µM: read-out: Inhibitory rate (%) JAK1 1 μM; for inhibition at 10 µM: read-out: Inhibitory rate (%) JAK1 10 μM. An outline of the steps:
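TR-FRET (LANCE) kinase assay using JAK1 at 187.5 ng/mL, ULight-JAK1 peptide at 300 nM and ATP at 150 μM, given as solution concentrations before mixing. Buffer was 50 mM HEPES pH 7.5 with 10 mM MgCl2 and 2 mM DTT, and the reaction ran 1 h at room temperature. Eu anti-phosphotyrosine signal at 665 nm was expressed relative to a no-enzyme well, taken as 100% inhibition.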
Background: TR-FRET usually uses a lanthanide donor and a delayed reading to cut background.

The target in another experiment is T2, Tyk2 (Homo sapiens, UniProt P29597).
T2 construct: purchased Invitrogen
The experiment is described as follows: Tyk2 enzyme inhibition test (LANCE method). In kind it is biochemical. The note with it: for Inhibitory rate (%) Tyk2 1 μM / inhibition at 1 µM: test compound 1 μM; for inhibition at 1 µM: read-out: Inhibitory rate (%) Tyk2 1 μM; for inhibition at 10 µM: test compound 10 μM, read-out: Inhibitory rate (%) Tyk2 10 μM. An outline of the steps:
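Recombinant Tyk2 (375 ng/mL stock) with ULight-JAK1 peptide (300 nM stock) and ATP (30 μM stock) in HEPES pH 7.5/MgCl2/EGTA/DTT buffer, 1 h at room temperature. Stopped with EDTA plus Eu-anti-phosphotyrosine antibody; TR-FRET read at 665 nm after 1 h. No-enzyme wells define 100% inhibition.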

T2 sequence (P29597 whole entry): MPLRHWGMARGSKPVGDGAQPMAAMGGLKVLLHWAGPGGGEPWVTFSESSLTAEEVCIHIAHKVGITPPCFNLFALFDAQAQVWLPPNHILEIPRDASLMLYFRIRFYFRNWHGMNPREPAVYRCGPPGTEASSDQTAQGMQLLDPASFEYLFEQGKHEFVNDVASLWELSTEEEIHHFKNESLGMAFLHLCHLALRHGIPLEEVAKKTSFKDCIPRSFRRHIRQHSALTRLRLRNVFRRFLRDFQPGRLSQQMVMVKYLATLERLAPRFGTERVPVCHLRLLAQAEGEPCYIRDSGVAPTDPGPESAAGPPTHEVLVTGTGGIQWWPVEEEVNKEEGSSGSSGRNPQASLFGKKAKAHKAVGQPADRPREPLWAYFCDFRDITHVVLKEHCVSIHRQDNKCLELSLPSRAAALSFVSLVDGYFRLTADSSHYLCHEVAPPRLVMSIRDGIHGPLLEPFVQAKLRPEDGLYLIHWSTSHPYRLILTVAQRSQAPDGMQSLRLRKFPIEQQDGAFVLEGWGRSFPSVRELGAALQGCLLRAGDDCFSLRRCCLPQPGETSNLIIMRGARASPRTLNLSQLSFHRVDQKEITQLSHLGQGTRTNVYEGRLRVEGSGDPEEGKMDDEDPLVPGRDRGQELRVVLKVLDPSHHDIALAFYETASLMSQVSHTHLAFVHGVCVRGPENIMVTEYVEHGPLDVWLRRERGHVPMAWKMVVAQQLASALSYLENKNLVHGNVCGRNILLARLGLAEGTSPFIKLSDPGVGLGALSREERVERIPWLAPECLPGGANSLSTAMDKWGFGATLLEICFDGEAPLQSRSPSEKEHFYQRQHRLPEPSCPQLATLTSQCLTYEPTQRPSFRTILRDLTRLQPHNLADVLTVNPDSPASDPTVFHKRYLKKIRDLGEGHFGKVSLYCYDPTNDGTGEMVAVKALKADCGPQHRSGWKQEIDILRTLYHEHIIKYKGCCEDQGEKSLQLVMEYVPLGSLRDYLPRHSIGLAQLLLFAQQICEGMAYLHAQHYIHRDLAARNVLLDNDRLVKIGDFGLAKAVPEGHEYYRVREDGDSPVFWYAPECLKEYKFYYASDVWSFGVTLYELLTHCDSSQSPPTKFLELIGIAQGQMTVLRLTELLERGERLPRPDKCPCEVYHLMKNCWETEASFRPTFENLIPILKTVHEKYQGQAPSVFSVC
T1 sequence (P23458 whole entry): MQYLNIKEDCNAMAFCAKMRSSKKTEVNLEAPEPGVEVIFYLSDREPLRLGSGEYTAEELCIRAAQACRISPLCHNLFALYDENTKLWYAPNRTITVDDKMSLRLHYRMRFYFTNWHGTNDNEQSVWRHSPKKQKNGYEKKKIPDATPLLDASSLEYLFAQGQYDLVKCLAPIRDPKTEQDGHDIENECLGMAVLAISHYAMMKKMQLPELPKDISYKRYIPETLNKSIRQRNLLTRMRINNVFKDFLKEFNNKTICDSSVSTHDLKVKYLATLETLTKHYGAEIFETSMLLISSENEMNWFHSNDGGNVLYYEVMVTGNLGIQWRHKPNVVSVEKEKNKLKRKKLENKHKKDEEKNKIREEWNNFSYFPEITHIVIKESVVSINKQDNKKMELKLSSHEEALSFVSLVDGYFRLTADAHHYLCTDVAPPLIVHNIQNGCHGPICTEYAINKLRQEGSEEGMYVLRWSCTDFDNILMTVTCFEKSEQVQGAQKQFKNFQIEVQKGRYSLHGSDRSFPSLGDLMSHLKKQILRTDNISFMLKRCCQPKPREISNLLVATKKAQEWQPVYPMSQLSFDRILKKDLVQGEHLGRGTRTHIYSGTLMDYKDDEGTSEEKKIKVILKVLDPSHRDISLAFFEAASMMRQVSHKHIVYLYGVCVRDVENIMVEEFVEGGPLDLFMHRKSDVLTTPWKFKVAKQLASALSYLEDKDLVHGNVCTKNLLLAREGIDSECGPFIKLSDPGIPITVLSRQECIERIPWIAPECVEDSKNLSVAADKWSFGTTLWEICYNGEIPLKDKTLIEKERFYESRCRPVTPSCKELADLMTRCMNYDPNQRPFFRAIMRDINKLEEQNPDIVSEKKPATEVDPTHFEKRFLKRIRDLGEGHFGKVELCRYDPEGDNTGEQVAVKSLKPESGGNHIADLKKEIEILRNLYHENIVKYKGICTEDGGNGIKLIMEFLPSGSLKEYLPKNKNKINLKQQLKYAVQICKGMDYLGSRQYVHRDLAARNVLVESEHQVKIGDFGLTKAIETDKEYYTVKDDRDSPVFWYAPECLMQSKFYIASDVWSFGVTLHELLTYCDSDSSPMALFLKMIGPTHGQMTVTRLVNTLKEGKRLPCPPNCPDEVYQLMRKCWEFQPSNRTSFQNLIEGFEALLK

As to `NS(=O)(=O)c1ccc(-c2nn(C3CCOC3)c3cc[nH]c(=O)c23)cc1` (stereo not drawn) [Example 84, 4-(4-oxo-1-(tetrahydrofuran-3-yl)-4,5-dihydro-1H-pyrazolo[4,3-c]pyridin-3-yl)benzenesulfonamide], the “Inhibitory rate (%) JAK1 1 μM” value on JAK1 was found to be 84%. The “Inhibitory rate (%) Tyk2 1 μM” value at Tyk2 was found to be 58%.

As for `N#CCc1ccc(-c2nn(-c3c(F)cccc3F)c3cc[nH]c(=O)c23)cc1` [Example 39, (4-(1-(2,6-difluorophenyl)-4-oxo-4,5-dihydro-1H-pyrazolo[4,3-c]pyridin-3-yl)phenyl)acetonitrile], the inhibition at 1 µM at JAK1 worked out at 99%; on Tyk2, 98%.

Consider `NC(=O)Cn1cc(-c2nn(-c3c(F)cccc3F)c3c(Cl)c[nH]c(=O)c23)cn1` [Example 190, 2-(4-(7-chloro-1-(2,6-difluorophenyl)-4-oxo-4,5-dihydro-1H-pyrazolo[4,3-c]pyridin-3-yl)-1H-pyrazol-1-yl)acetamide], for which the inhibition at 10 µM at JAK1 (test compound 10 μM (Ex. 182-220), beside Tyk2 1 μM) was determined as 81%. Also, the inhibition at 1 µM on Tyk2 stood at 99%.

On to `Nc1cc(F)c(-n2nc(-c3ccc(S(N)(=O)=O)cc3)c3c(=O)[nH]ccc32)c(F)c1` [Example 303, 4-(1-(4-amino-2,6-difluorophenyl)-4-oxo-4,5-dihydro-1H-pyrazolo[4,3-c]pyridin-3-yl)benzenesulfonamide], for which the results for the inhibition at 1 µM at JAK1 and on Tyk2 were 99% and 100%, respectively.

With `O=c1[nH]ccc2c1c(C1=CCCCC1)nn2C1CCCC1` [Example 41, 3-(cyclohex-1-en-1-yl)-1-cyclopentyl-1,5-dihydro-4H-pyrazolo[4,3-c]pyridin-4-one], the inhibition at 10 µM was found to be 38% on JAK1 (test compound 10 μM) and 49% on Tyk2.

`CC(C)Cn1cc(-c2cn(C3CCCC3)c3c(C#N)c[nH]c(=O)c23)cn1` [Example 135, 1-cyclopentyl-3-(1-isobutyl-1H-pyrazol-4-yl)-4-oxo-4,5-dihydro-1H-pyrrolo[3,2-c]pyridine-7-carbonitrile]: the inhibition at 1 µM was 56% on JAK1 and 97% at Tyk2.

In the case of `NS(=O)(=O)c1ccc(-c2nn(C3CCCOC3)c3cc[nH]c(=O)c23)cc1` (stereo not drawn) [Example 88, 4-(4-oxo-1-(tetrahydro-2H-pyran-3-yl)-4,5-dihydro-1H-pyrazolo[4,3-c]pyridin-3-yl)benzenesulfonamide], at JAK1, the “Inhibitory rate (%) JAK1 1 μM” value came to 96%. For the same molecule, the “Inhibitory rate (%) Tyk2 1 μM” value on Tyk2 is 91%.

For `CS(=O)(=O)N1CCN(c2ccc(-c3nn(-c4c(F)cccc4F)c4cc[nH]c(=O)c34)cc2)CC1` [Example 311, 1-(2,6-difluorophenyl)-3-(4-(4-(methylsulfonyl)piperazin-1-yl)phenyl)-1,5-dihydro-4H-pyrazolo[4,3-c]pyridin-4-one], the inhibition at 1 µM on JAK1 came out at 95%; at Tyk2, 99%.

Consider `NC(=O)c1ccc(-c2nn(C3CCCC3)c3cc[nH]c(=O)c23)cc1` [Example 142, 4-(1-cyclopentyl-4-oxo-4,5-dihydro-1H-pyrazolo[4,3-c]pyridin-3-yl)benzamide], for which the inhibition at 1 µM at JAK1 was 96%; on Tyk2, 97%.

For the molecule `O=c1[nH]cc(Cl)c2c1c(-c1cn[nH]c1)nn2-c1c(F)cccc1F` [Example 177, 7-chloro-1-(2,6-difluorophenyl)-3-(1H-pyrazol-4-yl)-1,5-dihydro-4H-pyrazolo[4,3-c]pyridin-4-one], the inhibition at 1 µM on JAK1 came to 91%; at Tyk2, 100%.

As for `NC(=O)c1cc(-c2cn(C3CCCC3)c3c(C(=O)O)c[nH]c(=O)c23)cs1` [Example 61, 3-(5-carbamoyl-3-thienyl)-1-cyclopentyl-4-oxo-4,5-dihydro-1H-pyrrolo[3,2-c]pyridine-7-carboxylic acid], the inhibition at 1 µM at JAK1 was determined as 8%; at Tyk2, 41%.

In the case of `Cc1c[nH]c(=O)c2c(-c3csc(C(N)=O)c3)nn(C3CCCC3)c12` [Example 281, 4-(1-cyclopentyl-7-methyl-4-oxo-4,5-dihydro-1H-pyrazolo[4,3-c]pyridin-3-yl)thiophene-2-carboxamide], the inhibition at 1 µM at JAK1 and at Tyk2 was 96% throughout.

As for `CNC(=O)c1cc(-c2nn(C3CCCC3)c3cc[nH]c(=O)c23)cs1` [Example 155, 4-(1-cyclopentyl-4-oxo-4,5-dihydro-1H-pyrazolo[4,3-c]pyridin-3-yl)-N-methylthiophene-2-carboxamide], the inhibition at 1 µM at JAK1 is 100%; on Tyk2, 99%.

For the molecule `NS(=O)(=O)c1cccc(Nc2nn(C3CCCC3)c3c(Br)c[nH]c(=O)c23)c1` [Example 285, 3-((7-bromo-1-cyclopentyl-4-oxo-4,5-dihydro-1H-pyrazolo[4,3-c]pyridin-3-yl)amino)benzenesulfonamide], the inhibition at 1 µM at JAK1 was determined as 70%; on Tyk2 it was 82%.

In the case of `N#CCc1cc(-c2cn(C3CCCC3)c3c(C#N)c[nH]c(=O)c23)cs1` [Example 93, 3-(5-(cyanomethyl)-3-thienyl)-1-cyclopentyl-4-oxo-4,5-dihydro-1H-pyrrolo[3,2-c]pyridine-7-carbonitrile], the inhibition at 1 µM on JAK1 stood at 98%; at Tyk2 it was 99%.

Turning to `CN(C)NC(=O)c1ccc(-c2nn(-c3c(F)cccc3F)c3cc[nH]c(=O)c23)cc1` [Example 289, 4-(1-(2,6-difluorophenyl)-4-oxo-4,5-dihydro-1H-pyrazolo[4,3-c]pyridin-3-yl)-N′,N′-dimethylbenzhydrazide], the inhibition at 1 µM on JAK1 came to 92%; at Tyk2, 99%.

As to `COC(=O)c1cc(-n2nc(-c3ccccc3C)c3c(C#N)c[nH]c(=O)c32)cs1` [Example 68, methyl 4-(4-cyano-3-(2-methylphenyl)-7-oxo-6,7-dihydro-1H-pyrazolo[3,4-c]pyridin-1-yl)thiophene-2-carboxylate], the inhibition at 1 µM on JAK1 was determined as 4%; at Tyk2, 67%.

For `NC(=O)c1cc(-c2nn(C3CCC(O)(c4ccccc4)CC3)c3cc[nH]c(=O)c23)cs1` (stereo not drawn) [Example 172, 4-(1-(4-hydroxy-4-phenylcyclohexyl)-4-oxo-4,5-dihydro-1H-pyrazolo[4,3-c]pyridin-3-yl)thiophene-2-carboxamide], the figures for the inhibition at 1 µM on JAK1 and on Tyk2 were 99% and 97%, respectively.

As for `NC(=O)c1ccc(F)c(-c2nn(-c3c(F)cccc3F)c3cc[nH]c(=O)c23)c1` [Example 267, 3-(1-(2,6-difluorophenyl)-4-oxo-4,5-dihydro-1H-pyrazolo[4,3-c]pyridin-3-yl)-4-fluorobenzamide], the inhibition at 10 µM at JAK1 (test compound 10 μM) was found to be 17%; on Tyk2 it was 31%.

For the molecule `NS(=O)(=O)c1ccc(-c2nn(CC3CCOC3)c3cc[nH]c(=O)c23)cc1` (stereo not drawn) [Example 115, 4-(4-oxo-1-(tetrahydrofuran-3-ylmethyl)-4,5-dihydro-1H-pyrazolo[4,3-c]pyridin-3-yl)benzenesulfonamide], the inhibition at 1 µM was 87% on JAK1 and 66% on Tyk2.

With `NC(=O)c1cc(-c2cn(C3CCCC3)c3c(C(N)=O)c[nH]c(=O)c23)cs1` [Example 62, 3-(5-carbamoyl-3-thienyl)-1-cyclopentyl-4-oxo-4,5-dihydro-1H-pyrrolo[3,2-c]pyridine-7-carboxamide], the inhibition at 1 µM at JAK1 was determined as 69%; at Tyk2, 81%.
